According to ChEMBL document CHEMBL5678800 (Mol Cancer Ther, 2009):

Tests used:
GEO [1] = assay: Antitumor activity against human GEO cells xenografted in nude mouse assessed as tumor growth inhibition at 25 mg/kg, po administered for 3 days in presence of cetuximab at 0.25 mg/kg relative to control; assay type: functional; settings: 72 h, time 3 day, read-out: TGI
GEO [2] = assay: Antitumor activity against human GEO cells xenografted in nude mouse assessed as tumor growth delay time at 12.5 mg/kg, po administered for 3 days in presence of cetuximab at 0.25 mg/kg relative to control; assay type: functional; settings: time 3 day
[3] = Toxicity in nude mouse xenografted with human GEO cells assessed as body weight loss at 6.25 mg/kg, po administered for 3 days in presence of cetuximab at 0.125 mg/kg relative to control; assay type: organism-based; settings: in vivo, 72 h, time 3 day
[4] = Plasma concentration in nude mouse xenografted with mouse IGF-1R-Sal cells at 3.125 mg/kg, po administered for 2 hrs by LC-MS/MS analysis; assay type: ADME, organism-based
GEO [5] = assay: Antitumor activity against human GEO cells xenografted in nude mouse assessed as tumor growth inhibition at 6.25 mg/kg, po administered for 3 days in presence of cetuximab at 0.25 mg/kg relative to control; assay type: functional; settings: 72 h, time 3 day, read-out: TGI
[6] = Toxicity in nude mouse xenografted with human GEO cells assessed as mortality at 6.25 mg/kg, po administered for 3 days in presence of cetuximab at 0.125 mg/kg relative to control; assay type: organism-based; settings: in vivo, time 3 day

Q: For `C[C@@]1(C(=O)Nc2ccc(F)nc2)CCCN1c1nc(Nc2cc(C3CC3)n[nH]2)c2cccn2n1` [BMS-754807], which inhibition in vivo at 25 mg/kg (GEO [1]) is on record?
A: 88%

Q: And the Time (GEO [2])?
A: 38 days

Q: What about the Activity [3] of the same molecule?
A: 1.2 g

Q: And the concentration at 2 h [4]?
A: 7 nM

Q: What about the inhibition in vivo at 6.25 mg/kg (GEO [5]) of the same molecule?
A: 86%

Q: What about the mortality at 72 h [6] of the same molecule?
A: 0%
